Results published in patent US11414404B2, “Compounds for the treatment of BRAF-associated diseases and disorders” (Array BioPharma Inc., priority 2019, dated 2022).
pIC50: −log10 of the molar value. Where a name gives a salt, the structure may show the parent alone.

Legend:
[1] = molecular target: full-length FLAG-tagged B-Raf(V600E) (Homo sapiens (Human), UniProt P15056, V600E); test: BRAF V600E enzyme assay (TR-FRET competitive displacement of fluorescent tracer); format: binding; conditions: averaged IC50; 60 min at ambient temperature; 11-point dosing, top dose 10 μM
Text: A competitive displacement assay was configured for B-Raf that monitors the amount of a fluorescently-tagged “tracer” bound to B-Raf via TR-FRET from an anti-tag Eu-labeled antibody also bound to B-Raf.
[formula] • where: • Xmax Average Uninhibited Controls • Xmin Average Background
A 4-parameter logistic model was the fit to the POC data for each compound.

BCRP = BCRP (Homo sapiens (Human), UniProt Q9UNQ0); test: BCRP MDCKII permeability assay: efflux ratio; conditions: dog
Description: BCRP transfected MDCKII cells were cultured and plated according to manufacturer's recommendations. Assay conditions included with and without the BCRP-specific inhibitor, K0143, at a concentration of 0.3 μM to ascertain the contribution of BCRP to the efflux value of the test compound.
Both positive and negative controls were used to assess functionality of P-gp or BCRP efflux in the assays. […] Final organic concentration in the assay was 1%. All dosing solutions contained 10 μM lucifer yellow to monitor LLC-PK1 or MDCKII cell monolayer integrity.
For the apical to basolateral determination (A to B), 75 μL of the test article in transport buffer were added to the apical side of the individual transwells and 250 μL of basolateral media, without compound or lucifer yellow, were added to each well. For the basolateral to apical determination (B to A), 250 μL of test article in transport buffer were added to each well and 75 μL transport buffer, without compound or lucifer yellow, were added to each transwell. All tests were performed in triplicate, and each compound was tested for both apical to basolateral and basolateral to apical transport. The plates were incubated for 2 hours on a Lab-Line Instruments Titer Orbital Shaker (VWR, West Chester, Pa.) at 50 rpm and 37° C. with 5% CO2. All culture plates were removed from the incubator and 50 μL of media were removed from the apical and basolateral portion of each well and added to 150 μL of 1 μM labetalol in 2:1 acetonitrile (acetonitrile): H2O, v/v.
These values were accepted when found to be below 2% for apical to basolateral and 5% basolateral to apical flux across the MDR1-transfected LLC-PK1 or BCRP-transfected MDCKII cell monolayers. The plates were sealed and the contents of each well analyzed by LC-MS/MS. The compound concentrations were determined from the ratio of the peak areas of the compound to the internal standard (labetalol) in comparison to the dosing solution.
The LC-MS/MS system was comprised of an HTS-PAL autosampler (Leap Technologies, Carrboro, N.C.), an HP1200 HPLC (Agilent, Palo Alto, Calif.), and a MDS Sciex 4000 Q Trap system (Applied Biosystems, Foster City, Calif.). […] The total run time, including re-equilibration, for a single injection was 1.2 minutes. Mass spectrometric detection of the analytes was accomplished using the ion spray positive mode.
An efflux ratio is calculated from the mean apical to basolateral (A−B) Papp data and basolateral to apical (B−A) Papp data: Efflux ratio=Papp(B−A)/Papp(A−B)

P-gp (MDR1) = P-gp (MDR1) (Homo sapiens (Human), UniProt P08183); test: MDR1 LLC-PK1 permeability assay: efflux ratio; conditions: pig, LLC-PK1
[2] = MDR1 LLC-PK1 and BCRP MDCKII permeability assay: permeability coefficient (Papp)

full-length FLAG-tagged B-Raf(V600E), sequence (P15056 whole entry V600E): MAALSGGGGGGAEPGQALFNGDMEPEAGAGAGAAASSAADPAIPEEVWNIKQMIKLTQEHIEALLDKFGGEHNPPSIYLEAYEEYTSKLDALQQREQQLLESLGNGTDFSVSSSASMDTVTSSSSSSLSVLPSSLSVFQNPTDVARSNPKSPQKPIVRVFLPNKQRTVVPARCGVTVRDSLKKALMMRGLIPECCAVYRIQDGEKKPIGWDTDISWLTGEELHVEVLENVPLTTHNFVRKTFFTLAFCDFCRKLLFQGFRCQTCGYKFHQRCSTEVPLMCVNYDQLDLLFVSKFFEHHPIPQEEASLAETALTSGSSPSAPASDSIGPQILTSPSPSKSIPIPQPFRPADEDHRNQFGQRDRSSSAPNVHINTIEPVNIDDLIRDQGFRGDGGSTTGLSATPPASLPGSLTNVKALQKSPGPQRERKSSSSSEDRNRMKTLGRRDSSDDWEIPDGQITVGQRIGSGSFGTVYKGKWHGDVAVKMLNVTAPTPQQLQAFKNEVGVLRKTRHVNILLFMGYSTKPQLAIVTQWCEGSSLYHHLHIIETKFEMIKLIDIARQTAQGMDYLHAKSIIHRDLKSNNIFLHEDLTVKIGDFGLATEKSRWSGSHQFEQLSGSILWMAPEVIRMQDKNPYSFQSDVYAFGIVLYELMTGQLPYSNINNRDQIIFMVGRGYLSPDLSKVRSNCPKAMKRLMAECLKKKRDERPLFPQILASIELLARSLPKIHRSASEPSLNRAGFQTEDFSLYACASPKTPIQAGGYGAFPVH
P-gp (MDR1), sequence (P08183 whole entry, species assumed): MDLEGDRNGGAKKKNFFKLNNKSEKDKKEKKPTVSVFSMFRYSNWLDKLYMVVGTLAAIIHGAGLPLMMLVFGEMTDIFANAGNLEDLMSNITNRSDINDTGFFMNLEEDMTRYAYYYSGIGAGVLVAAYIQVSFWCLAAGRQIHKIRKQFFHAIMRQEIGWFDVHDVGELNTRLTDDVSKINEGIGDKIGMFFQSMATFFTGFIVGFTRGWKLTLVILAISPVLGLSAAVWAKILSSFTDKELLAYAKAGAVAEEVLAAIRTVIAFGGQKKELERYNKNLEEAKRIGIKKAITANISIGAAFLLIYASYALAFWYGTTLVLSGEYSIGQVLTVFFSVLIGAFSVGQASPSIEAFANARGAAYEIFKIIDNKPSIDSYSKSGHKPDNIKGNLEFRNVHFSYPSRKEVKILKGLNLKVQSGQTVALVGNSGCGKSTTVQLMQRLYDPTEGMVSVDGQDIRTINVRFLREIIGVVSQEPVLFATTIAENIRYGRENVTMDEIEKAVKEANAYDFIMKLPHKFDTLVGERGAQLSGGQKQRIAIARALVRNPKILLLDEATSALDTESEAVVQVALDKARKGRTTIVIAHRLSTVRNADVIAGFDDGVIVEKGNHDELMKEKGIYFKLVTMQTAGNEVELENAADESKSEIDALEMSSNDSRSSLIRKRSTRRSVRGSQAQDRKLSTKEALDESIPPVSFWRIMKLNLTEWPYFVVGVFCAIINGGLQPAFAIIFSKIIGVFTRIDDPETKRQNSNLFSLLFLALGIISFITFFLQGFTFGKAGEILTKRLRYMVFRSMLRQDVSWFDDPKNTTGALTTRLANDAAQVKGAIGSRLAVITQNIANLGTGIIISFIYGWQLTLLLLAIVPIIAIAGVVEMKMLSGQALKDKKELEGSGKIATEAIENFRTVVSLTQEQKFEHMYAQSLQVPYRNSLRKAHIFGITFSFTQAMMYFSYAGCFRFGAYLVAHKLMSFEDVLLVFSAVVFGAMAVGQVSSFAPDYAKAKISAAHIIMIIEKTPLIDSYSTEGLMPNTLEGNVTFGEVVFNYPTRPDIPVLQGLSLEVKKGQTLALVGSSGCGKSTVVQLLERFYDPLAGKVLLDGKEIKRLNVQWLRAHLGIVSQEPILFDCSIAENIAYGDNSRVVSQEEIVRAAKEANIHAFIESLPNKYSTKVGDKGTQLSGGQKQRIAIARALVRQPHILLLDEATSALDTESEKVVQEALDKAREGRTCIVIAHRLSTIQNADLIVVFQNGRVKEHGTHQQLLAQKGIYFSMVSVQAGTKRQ
BCRP, sequence (Q9UNQ0 whole entry, species assumed): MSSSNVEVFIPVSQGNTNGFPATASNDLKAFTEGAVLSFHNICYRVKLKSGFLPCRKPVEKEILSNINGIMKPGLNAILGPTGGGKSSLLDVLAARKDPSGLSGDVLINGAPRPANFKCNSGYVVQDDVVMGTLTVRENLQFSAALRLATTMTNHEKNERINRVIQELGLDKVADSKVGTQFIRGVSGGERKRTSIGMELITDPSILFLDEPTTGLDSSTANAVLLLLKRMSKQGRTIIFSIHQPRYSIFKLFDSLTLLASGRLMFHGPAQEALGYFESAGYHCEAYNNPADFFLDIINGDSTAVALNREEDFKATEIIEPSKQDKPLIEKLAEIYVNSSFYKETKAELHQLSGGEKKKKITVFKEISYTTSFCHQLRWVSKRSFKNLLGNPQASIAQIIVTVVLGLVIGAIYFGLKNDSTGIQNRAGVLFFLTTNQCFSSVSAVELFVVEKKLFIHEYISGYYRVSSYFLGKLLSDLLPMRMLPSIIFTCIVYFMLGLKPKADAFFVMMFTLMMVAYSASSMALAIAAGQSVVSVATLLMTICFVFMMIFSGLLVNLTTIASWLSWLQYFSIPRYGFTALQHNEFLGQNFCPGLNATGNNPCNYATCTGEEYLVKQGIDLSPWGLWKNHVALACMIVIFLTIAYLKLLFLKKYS

SMILES | pIC50 [1] | efflux ratio at 2 h, 1 µM (BCRP) | efflux ratio at 2 h, 1 µM (P-gp (MDR1)) | Papp at 2 h, 1 µM [2] [×10⁻⁶ cm/s]
COCCS(=O)(=O)Nc1ccc(F)c(Nc2ccc3ncn(C)c(=O)c3c2C)c1Cl [Example 27, N-(2-chloro-3-((3,5-dimethyl-4-oxo-3,4-dihydroquinazolin-6-yl)amino)-4-fluorophenyl)-2-methoxyethane-1-sulfonamide] | 6.68 | 2.09 | 1.4 | 34.5
CCCS(=O)(=O)Nc1ccc(F)c(Nc2ccc3ncn(Cc4ccccc4)c(=O)c3c2C)c1Cl [Example 29, N-(3-((3-benzyl-5-methyl-4-oxo-3,4-dihydroquinazolin-6-yl)amino)-2-chloro-4-fluorophenyl)propane-1-sulfonamide] | 6.76 | 0.87 | 1.61 | 12
CCCS(=O)(=O)Nc1ccc(F)c(Nc2ccc3ncn(CCOC)c(=O)c3c2C)c1Cl [Example 30, N-(2-chloro-4-fluoro-3-((3-(2-methoxyethyl)-5-methyl-4-oxo-3,4-dihydroquinazolin-6-yl)amino)phenyl)propane-1-sulfonamide] | 7.34 | 1.92 | 2.59 | 24.8
CCCS(=O)(=O)Nc1ccc(F)c(Nc2ccc3ncn(C4CC4)c(=O)c3c2C)c1Cl [Example 31, N-(2-chloro-3-((3-cyclopropyl-5-methyl-4-oxo-3,4-dihydroquinazolin-6-yl)amino)-4-fluorophenyl)propane-1-sulfonamide trifluoroacetate] | 7.60 | 1.64 | 1.59 | 24.5
CCCS(=O)(=O)Nc1ccc(F)c(Nc2ccc3ncn(-c4ccccc4)c(=O)c3c2C)c1Cl [Example 32, N-(2-chloro-4-fluoro-3-((5-methyl-4-oxo-3-phenyl-3,4-dihydroquinazolin-6-yl)amino)phenyl)propane-1-sulfonamide trifluoroacetate] | 7.03 | 1 | 0.86 | 15.6
CCCS(=O)(=O)Nc1ccc(F)c(Nc2ccc3ncn(CC)c(=O)c3c2C)c1Cl [Example 37, N-(2-chloro-3-((3-ethyl-5-methyl-4-oxo-3,4-dihydroquinazolin-6-yl)amino)-4-fluorophenyl)propane-1-sulfonamide trifluoroacetate] | 8.26 | 0.87 | 0.94 | 29.9
CCCS(=O)(=O)Nc1ccc(F)c(Nc2ccc3ncn(C4CCCC4)c(=O)c3c2C)c1Cl [Example 39, N-(2-chloro-3-((3-cyclopentyl-5-methyl-4-oxo-3,4-dihydroquinazolin-6-yl)amino)-4-fluorophenyl)propane-1-sulfonamide trifluoroacetate] | 7.28 | 1.33 | 1.29 | 14.2
CCCS(=O)(=O)Nc1ccc(F)c(Nc2ccc3ncn(C)c(=O)c3c2C)c1C [Example 41, N-(3-((3,5-dimethyl-4-oxo-3,4-dihydroquinazolin-6-yl)amino)-4-fluoro-2-methylphenyl)propane-1-sulfonamide] | 5.55 | 3.28 | 2.79 | 29.8

Continued, values first:

pIC50 [1] | efflux ratio at 2 h, 1 µM (BCRP) | efflux ratio at 2 h, 1 µM (P-gp (MDR1)) | Papp at 2 h, 1 µM [2] [×10⁻⁶ cm/s] | SMILES
8.70 | 33 | 6.46 | 26.8 | CCCS(=O)(=O)Nc1ccc(F)c(Nc2ccc3ncn(C)c(=O)c3c2C)c1C#N [Example 28, N-(2-cyano-3-((3,5-dimethyl-4-oxo-3,4-dihydroquinazolin-6-yl)amino)-4-fluorophenyl)propane-1-sulfonamide]
7.62 | 1.33 | 1.2 | 21.9 | CCCS(=O)(=O)Nc1ccc(F)c(Nc2ccc3ncn(C4CCC4)c(=O)c3c2C)c1Cl [Example 33, N-(2-chloro-3-((3-cyclobutyl-5-methyl-4-oxo-3,4-dihydroquinazolin-6-yl)amino)-4-fluorophenyl)propane-1-sulfonamide trifluoroacetate]
8.05 | 2.19 | 1.81 | 27.7 | CCCS(=O)(=O)Nc1ccc(F)c(Nc2ccc3ncn([C@@H]4CCOC4)c(=O)c3c2C)c1Cl [Example 34, (R)-N-(2-chloro-4-fluoro-3-((5-methyl-4-oxo-3-(tetrahydrofuran-3-yl)-3,4-dihydroquinazolin-6-yl)amino)phenyl)propane-1-sulfonamide trifluoroacetate]
7.61 | 1.78 | 1.92 | 29.4 | CCCS(=O)(=O)Nc1ccc(F)c(Nc2ccc3ncn([C@H]4CCOC4)c(=O)c3c2C)c1Cl [Example 35, (S)-N-(2-chloro-4-fluoro-3-((5-methyl-4-oxo-3-(tetrahydrofuran-3-yl)-3,4-dihydroquinazolin-6-yl)amino)phenyl)propane-1-sulfonamide trifluoroacetate]
7.55 | 1.57 | 1.15 | 20.6 | CCCS(=O)(=O)Nc1ccc(F)c(Nc2ccc3ncn(CC4CC4)c(=O)c3c2C)c1Cl [Example 38, N-(2-chloro-3-((3-(cyclopropylmethyl)-5-methyl-4-oxo-3,4-dihydroquinazolin-6-yl)amino)-4-fluorophenyl)propane-1-sulfonamide]
7.36 | 2.87 | 2.2 | 28.7 | CCCS(=O)(=O)Nc1ccc(Cl)c(Nc2ccc3ncn(C)c(=O)c3c2C)c1F [Example 40, N-(4-chloro-3-((3,5-dimethyl-4-oxo-3,4-dihydroquinazolin-6-yl)amino)-2-fluorophenyl)propane-1-sulfonamide]
8.22 | 2.84 | 1.05 | 24.2 | Cc1c(Nc2cc(F)cc(NS(=O)(=O)CCCF)c2Cl)ccc2ncn(C)c(=O)c12 [Example 44, N-(2-chloro-3-((3,5-dimethyl-4-oxo-3,4-dihydroquinazolin-6-yl)amino)-5-fluorophenyl)-3-fluoropropane-1-sulfonamide]
8.40 | 0.97 | 1.24 | 30.7 | Cc1c(Nc2c(F)ccc(NS(=O)(=O)c3ccccc3)c2Cl)ccc2ncn(C)c(=O)c12 [Example 49, N-(2-chloro-3-((3,5-dimethyl-4-oxo-3,4-dihydroquinazolin-6-yl)amino)-4-fluorophenyl)benzenesulfonamide]
7.45 | 1.93 | 2.26 | 27.6 | CCCS(=O)(=O)Nc1ccc(F)c(Nc2ccc3ncn(-c4cccnc4)c(=O)c3c2C)c1Cl [Example 58, N-(2-chloro-4-fluoro-3-((5-methyl-4-oxo-3-(pyridin-3-yl)-3,4-dihydroquinazolin-6-yl)amino)phenyl)propane-1-sulfonamide]
8.47 | 1.08 | 1.36 | 25.1 | CCCS(=O)(=O)Nc1ccc(F)c(Nc2ccc3ncn(CC(F)(F)F)c(=O)c3c2C)c1Cl [Example 59, N-(2-chloro-4-fluoro-3-((5-methyl-4-oxo-3-(2,2,2-trifluoroethyl)-3,4-dihydroquinazolin-6-yl)amino)phenyl)propane-1-sulfonamide]
